Test results from patent US20070025986A1, “Modulation of HCN channels by second messengers” (priority 2003, published 2007).
Where two headings read alike, the source gives them in different places. No end group written: not given here.

Assays:
[1] = test system: native pacemaker channels (IH); conditions: cited from earlier work
[2] = test system: HCN1 channel; test: Two microelectrode voltage clamp (2MEV) of HCN1 and HCN1 mutants expressed in Xenopus oocytes; type: cell-based, mouse; conditions: forskolin 10 μM, 30 min, SQ-22536 300 μM, 3 hr
[3] = ADn: Thalamic anterior dorsal relay neurons
[4] = CP: Cerebellar purkinje neurons
[5] = DRG: Dorsal root ganglion neurons
[6] = CA1: CA1 pyramidal neurons or unidentified CA1 cells
[7] = ORN: Olfactory receptor neurons
[8] = MTNB: medial nucleus of the trapezoid body
[9] = SO: CA1 stratum oriens-alveus interneuron

NCCc1c[nH]c2ccc(O)cc12 [5-HT]
Δ V1/2 [1, 3]: +15 mV | Δ V1/2 ([1]; BSMN: Brainstem motor neurons): +6 mV BSMN | Δ IMAX ([1]; CMN: crustacean motor neurons): +20% | Δ V1/2 ([1]; CMN: crustacean motor neurons): +10 mV | Δ V1/2 [1, 4]: −8 mV | Δ V1/2 [1, 5]: +6 mV | Δ IMAX ([1]; FM: Facial motor neurons): +25% | Δ IMAX ([1]; PH: Prepositus Hyperglossi neurons): +30% | Δ IMAX ([1]; ST: Solitary tract neurons): +100% ST | Δ IMAX ([1]; TR: thalamic relay): +20% | Δ V1/2 ([1]; TR: thalamic relay): +5 mV | Δ V1/2 ([1]; VT: Ventral tegmental neurons): −7 m

NCCc1c[nH]c2ccc(C(N)=O)cc12 [5CT]
Δ V1/2 [1, 3]: +15 mV | Δ IMAX [1, 6]: +50% | Δ V1/2 [1, 6]: +5 mV CA1 | Δ V1/2 [1, 5]: +6 mV

CCCN(CCC)C1CCc2cccc(O)c2C1 (stereo not shown) [8-OH-DPAT]
Δ IMAX ([1]; ST: Solitary tract neurons): +100% ST

Nc1ncnc2c1ncn2[C@@H]1O[C@H](CO)[C@@H](O)[C@H]1O [Adenosine]
Δ V1/2 [1, 5]: −7 mV | Δ V1/2 ([1]; SA: sinoatrial node): −6 mV

NCC(CC(=O)O)c1ccc(Cl)cc1 (stereo not shown) [Baclofen]
Δ IMAX ([1]; SNZC: Substantia nigra zona compacta): −11% | Δ IMAX ([1]; VT: Ventral tegmental neurons): −20%

Clc1cccc(Cl)c1N=C1NCCN1 [Clonidine]
Δ IMAX [1, 5]: HG, −40% DRG | Δ V1/2 ([1]; HG: Hypoglossal motor neurons): −4 mV HG

COc1cc(CC(C)N)c(OC)cc1I (stereo not shown) [DOI]
Δ V1/2 [1, 4]: −8 mV | Δ IMAX ([1]; FM: Facial motor neurons): +25% | Δ V1/2 ([1]; VT: Ventral tegmental neurons): −7 m

NCCc1ccc(O)c(O)c1 [Dopamine]
Δ IMAX [1, 7]: −50% | Δ V1/2 [1, 7]: −9 mV | Δ V1/2 ([1]; PG: Pyloric ganglion motor neurons): +20 mV PG | Δ IMAX ([1]; ROD: Rod photoreceptors): −30% ROD | Δ V1/2 ([1]; ROD: Rod photoreceptors): −17 mV | Δ IMAX ([1]; VT: Ventral tegmental neurons): −20%

CC(C)NCC(O)c1ccc(O)c(O)c1 (stereo not shown) [Isoproterenol]
Δ IMAX ([1]; AT: atrial myocyte): +90% | Δ V1/2 ([1]; AT: atrial myocyte): +11 mV | Δ V1/2 ([1]; BC: cerebllar basket cell): +6 mV | Δ IMAX ([1]; ECM: Embryonic cardiomyocytes): +65% | Δ V1/2 [1, 8]: +12 mV | Δ IMAX [1, 9]: +30% | Δ IMAX ([1]; TR: thalamic relay): ECM; +31% TR; BC; | Δ V1/2 ([1]; TR: thalamic relay): +5 mV

OC[C@H]1O[C@@H](n2cnc3c(NC4CCCCC4)ncnc32)[C@H](O)[C@@H]1O [N6-CHA]
Δ V1/2 [1, 5]: −7 mV | Δ V1/2 ([1]; SA: sinoatrial node): −6 mV

OC[C@H]1O[C@@H](n2cnc3c(NC4CCCC4)ncnc32)[C@H](O)[C@@H]1O [N6-CPA]
Δ V1/2 [1, 5]: −7 mV | Δ V1/2 ([1]; SA: sinoatrial node): −6 mV

NC[C@H](O)c1ccc(O)c(O)c1 [NorE]
Δ IMAX ([1]; AT: atrial myocyte): +90% | Δ V1/2 ([1]; AT: atrial myocyte): +11 mV | Δ V1/2 ([1]; BC: cerebllar basket cell): +6 mV | Δ IMAX ([1]; ECM: Embryonic cardiomyocytes): +65% | Δ V1/2 [1, 8]: +12 mV | Δ IMAX [1, 9]: +30% | Δ IMAX ([1]; TR: thalamic relay): ECM; +31% TR; BC; | Δ V1/2 ([1]; TR: thalamic relay): +5 mV

CCCCCCCC/C=C/CCCCCCCC(=O)OCC(CO)OC(C)=O (stereo not shown) [OAG]
Δ IMAX ([1]; SNPC: Substantia nigra pars compacta): −49% SNPC

CCCCC[C@H](O)/C=C/[C@H]1[C@H](O)CC(=O)[C@@H]1C/C=C\CCCC(=O)O [PGE2]
Δ IMAX ([1]; NG: Nodose ganglion): +18% NG, TG | Δ V1/2 ([1]; NG: Nodose ganglion): +6 mV NG, TG | Δ IMAX ([1]; TG: Trigeminal ganglion): +18% NG, TG | Δ V1/2 ([1]; TG: Trigeminal ganglion): +6 mV NG, TG

Nc1ncnc2c1ncn2C1CCCO1 (stereo not shown) [SQ-22536]
Effect on gating ([2]; HCN1-R538E): not altered | Effect on V1/2 of activation ([2]; wild type HCN1): inhibited

C[N+](C)(C)CCOC(N)=O [carbachol]
Δ IMAX ([1]; ECM: Embryonic cardiomyocytes): −41% | Δ IMAX ([1]; LGN): CA1; +43% LGN | Δ V1/2 ([1]; LGN): CA1; +5 mV LGN | Δ V1/2 ([1]; PF: cardiac purkinje fibre): −8 mV SA, PF | Δ V1/2 ([1]; SA: sinoatrial node): −8 mV SA, PF

AT-II: agonist listed for angiotensin AT½ receptor (DRVYIHPF; Angiotensin-2; UniProt P01019 25-32, looked up)
Δ V1/2 ([1]; PVN: Hypothalamic paraventricular neurons): +8m PVN

EGF: agonist listed for EGF receptor
Δ IMAX ([1]; SA: sinoatrial node): +23% SA

PACAP38: agonist listed for PAC1 receptor (HSDGIFTDSYSRYRKQMAVKKYLAAVLGKRYKQRVKNK; ends and bridges not checked; UniProt P18509 132-169, looked up)
Δ IMAX ([1]; TR: thalamic relay): +30% TR | Δ V1/2 ([1]; TR: thalamic relay): +7 mV TR

Sub P: agonist listed for tachykinin NK 1/2/3 receptor (RPKPQQFFGLM; ends and bridges not checked; UniProt P20366 58-68, looked up)
Δ V1/2 ([1]; NG: Nodose ganglion): −20 mV. NG

VIP: agonist listed for PAC1 receptor (HSDAVFTDNYTRLRKQMAVKKYLNSILN; ends and bridges not checked; UniProt P01282 125-152, looked up)
Δ IMAX ([1]; TR: thalamic relay): +30% TR | Δ V1/2 ([1]; TR: thalamic relay): +7 mV TR

B1: BDNF: neurotrophin, agonist listed for TrkA/B/C, P75 (protein, UniProt P23560 19-247, looked up)
Neurotrophic factor BDNF …: APMKEANIRGQGGLAYPGVRTHGTLESVNGPKAGSRGLTSLADTFEHVIEELLDEDQKVRPNEENNKDADLYTSRVMLSSQVPLEPPLLFLLEEYKNYLDAANMSMRVRRHSDPARRGELSVCDSISEWVTAADKKTAVDMSGGTVTVLEKVPVSKGQLKQYFYETKCNPMGYTKEGCRGIDKRHWNSQCRTTQSYVRALTMDSKKRIGWRFIRIDTSCVCTLTIKRGR
Δ IMAX ([1]; PBC: Pre-botzinger complex): −46% PBC | Δ V1/2 ([1]; PBC: Pre-botzinger complex): −17 mV PBC
